According to PubChem BioAssay AID1845196 (Molecular Pharmacology Branch, DTP, NCI, 2023):

System: 292921-168-R tumor spheroid viability
Assay: Anticancer human tumor 292921-168-R patient-derived pancreatic carcinoma cell line growth inhibition
Conditions: spheroids with HUVEC and MSC; for IC50: curve of first compound; for viability, T/C: stronger effect = lower value
In short: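 Complex tumor spheroids combined malignant cells with endothelial cells and mesenchymal stem cells. DNA-damaging drugs and DNA repair inhibitors were tested alone and in combination, at half-log dilutions down from clinical Cmax (top 10 microM if Cmax unknown), 0.25% DMSO final.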

[1] = second compound 1 µM, first compound 0.0316 µM
[2] = second compound 1 µM, first compound 0.1 µM
[3] = second compound 1 µM, first compound 0.316 µM
[4] = second compound 1 µM, first compound 1 µM
[5] = second compound 1 µM, first compound 3.16 µM
[6] = second compound 1 µM, first compound 10 µM
[7] = second compound 3.16 µM, first compound 0.0316 µM
[8] = second compound 3.16 µM, first compound 0.1 µM
[9] = second compound 3.16 µM, first compound 0.316 µM
[10] = second compound 3.16 µM, first compound 1 µM
[11] = second compound 3.16 µM, first compound 3.16 µM
[12] = second compound 3.16 µM, first compound 10 µM
[13] = second compound 10 µM, first compound 0.0316 µM
[14] = second compound 10 µM, first compound 0.1 µM
[15] = second compound 10 µM, first compound 0.316 µM
[16] = second compound 10 µM, first compound 1 µM
[17] = second compound 10 µM, first compound 3.16 µM
[18] = second compound 10 µM, first compound 10 µM
[19] = second compound 31.6 µM, first compound 0.0316 µM
[20] = second compound 31.6 µM, first compound 0.1 µM
[21] = second compound 31.6 µM, first compound 0.316 µM
[22] = second compound 31.6 µM, first compound 1 µM
[23] = second compound 31.6 µM, first compound 3.16 µM
[24] = second compound 31.6 µM, first compound 10 µM
[25] = second compound 100 µM, first compound 0.0316 µM
[26] = second compound 100 µM, first compound 0.1 µM
[27] = second compound 100 µM, first compound 0.316 µM
[28] = second compound 100 µM, first compound 1 µM
[29] = second compound 100 µM, first compound 3.16 µM
[30] = second compound 100 µM, first compound 10 µM
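Also: spheroids exposed to compounds for 7 days.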

SMILES	IC50 (second compound 1 µM)	IC50 (second compound 3.16 µM)	IC50 (second compound 10 µM)	IC50 (second compound 31.6 µM)	IC50 (second compound 100 µM)	viability, T/C [1]	viability, T/C [2]	viability, T/C [3]	viability, T/C [4]	viability, T/C [5]	viability, T/C [6]	viability, T/C [7]	viability, T/C [8]	viability, T/C [9]	viability, T/C [10]	viability, T/C [11]	viability, T/C [12]	viability, T/C [13]	viability, T/C [14]	viability, T/C [15]	further results
CC(C)n1c(=O)n(C)c2cnc3cc(F)c(-c4ccc(OCCCN5CCCCC5)nc4)cc3c21 + Cn1nnc2c(C(N)=O)ncn2c1=O	4.66 µM	5.43 µM	5.38 µM	4.64 µM	4.29 µM	96.5%	94.2%	89.6%	79.6%	63.3%	26%	99.2%	94.8%	85.6%	86.8%	73.8%	25.1%	90.4%	96.2%	89.5%	viability, T/C [16]: 84.2%; viability, T/C [17]: 69.8%; viability, T/C [18]: 27.4%; viability, T/C [19]: 89.9%; viability, T/C [20]: 91.2%; viability, T/C [21]: 83.6%; viability, T/C [22]: 77.9%; viability, T/C [23]: 62.8%; viability, T/C [24]: 25.9%; viability, T/C [25]: 72.2%; viability, T/C [26]: 74.1%; viability, T/C [27]: 79.6%; viability, T/C [28]: 77.2%; viability, T/C [29]: 57.9%; viability, T/C [30]: 28.1%
CC1COCCN1c1cc(-c2ccnn2C)c2ccnc(-c3ccn[nH]3)c2n1 (stereo not given) + Cn1nnc2c(C(N)=O)ncn2c1=O	< 0.0316 µM	< 0.0316 µM	< 0.0316 µM	< 0.0316 µM	< 0.0316 µM	29%	15.5%	13%	13.1%	14.6%	15.8%	30.4%	17.8%	14.5%	13%	14.2%	15.8%	27.9%	16.2%	12.1%	viability, T/C [16]: 12.8%; viability, T/C [17]: 15.2%; viability, T/C [18]: 15.6%; viability, T/C [19]: 24.3%; viability, T/C [20]: 17.9%; viability, T/C [21]: 12.5%; viability, T/C [22]: 12.8%; viability, T/C [23]: 13.9%; viability, T/C [24]: 15.3%; viability, T/C [25]: 16.9%; viability, T/C [26]: 11.8%; viability, T/C [27]: 9.95%; viability, T/C [28]: 11.3%; viability, T/C [29]: 13%; viability, T/C [30]: 14.7%
COc1cc(C)[nH]c(=O)c1CN1CCc2c(Cl)cc(C(OC)C3COC3)c(Cl)c2C1=O (stereo not given) + Cn1nnc2c(C(N)=O)ncn2c1=O	> 10 µM	> 10 µM	> 10 µM	> 10 µM	> 10 µM	94.7%	94.7%	95.4%	88.7%	81.6%	72.6%	102%	100%	93.6%	79.8%	88.2%	84.5%	93.4%	87.4%	98%	viability, T/C [16]: 80.2%; viability, T/C [17]: 84.4%; viability, T/C [18]: 75.2%; viability, T/C [19]: 91.5%; viability, T/C [20]: 94.2%; viability, T/C [21]: 89.4%; viability, T/C [22]: 85.1%; viability, T/C [23]: 78.5%; viability, T/C [24]: 80.2%; viability, T/C [25]: 89.5%; viability, T/C [26]: 91.1%; viability, T/C [27]: 88.1%; viability, T/C [28]: 78%; viability, T/C [29]: 75.9%; viability, T/C [30]: 82%
COc1ccc([C@@H](O)c2cc(-c3ncnc4cc(N5CCOCC5)ccc34)c(F)cc2Cl)nn1 + Cn1nnc2c(C(N)=O)ncn2c1=O	1.23 µM	1.47 µM	1.29 µM	1.14 µM	0.899 µM	96.4%	91.1%	70.9%	55.5%	32.5%	17.9%	101%	95.5%	82.2%	60.1%	31.6%	19%	97.5%	91.6%	84.9%	viability, T/C [16]: 51%; viability, T/C [17]: 35.5%; viability, T/C [18]: 18.2%; viability, T/C [19]: 95.5%; viability, T/C [20]: 92.5%; viability, T/C [21]: 81.5%; viability, T/C [22]: 51.2%; viability, T/C [23]: 30.4%; viability, T/C [24]: 18.6%; viability, T/C [25]: 93%; viability, T/C [26]: 88.5%; viability, T/C [27]: 77.7%; viability, T/C [28]: 45%; viability, T/C [29]: 30.4%; viability, T/C [30]: 18.9%
Cc1cc(C)c(CNC(=O)c2cc(-c3ccc(CN4CCOCC4)cc3)cc3c2cnn3C2CCCC2)c(=O)[nH]1 + Cn1nnc2c(C(N)=O)ncn2c1=O	> 10 µM	> 10 µM	> 10 µM	> 10 µM	> 10 µM	91.6%	92.7%	97.4%	86.6%	78.7%	54.3%	94.2%	96.6%	94.9%	92.4%	85.2%	60.4%	86.8%	94.4%	96%	viability, T/C [16]: 92.5%; viability, T/C [17]: 83.7%; viability, T/C [18]: 56.1%; viability, T/C [19]: 88.5%; viability, T/C [20]: 86.4%; viability, T/C [21]: 83.5%; viability, T/C [22]: 92.5%; viability, T/C [23]: 85.7%; viability, T/C [24]: 51.1%; viability, T/C [25]: 83.5%; viability, T/C [26]: 87.2%; viability, T/C [27]: 83.5%; viability, T/C [28]: 77.2%; viability, T/C [29]: 79.1%; viability, T/C [30]: 52.5%
[2H]c1nc(C)nc([2H])c1-c1cc(NC[C@@H](C)c2cccc3c(C(=O)NC)ccnc23)ncn1 + Cn1nnc2c(C(N)=O)ncn2c1=O	> 10 µM	> 10 µM	> 10 µM	> 10 µM	> 10 µM	92.5%	99.7%	93.5%	76.6%	91.5%	71.8%	91%	91.5%	90.6%	93.7%	88.7%	77.4%	89.2%	86.4%	87.3%	viability, T/C [16]: 93.7%; viability, T/C [17]: 87.4%; viability, T/C [18]: 79.6%; viability, T/C [19]: 86.4%; viability, T/C [20]: 87.1%; viability, T/C [21]: 86.9%; viability, T/C [22]: 86.1%; viability, T/C [23]: 89.4%; viability, T/C [24]: 75.4%; viability, T/C [25]: 81.4%; viability, T/C [26]: 81.5%; viability, T/C [27]: 84.1%; viability, T/C [28]: 81.2%; viability, T/C [29]: 79.1%; viability, T/C [30]: 70.6%
